Reference: ChEMBL document CHEMBL1201862, “PubChem BioAssay data set” (2004)
The source made the active and inactive calls.

Columns and labels:
[1] = test system: HeLa; assay: HeLa cell cytotoxicity, dose response, cytotoxicity control, 24 h, cherry-picked samples (AID 504726); format: functional, cell-based; conditions: Homo sapiens;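 also: potency for cytotoxicity as loss of luminescence signal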
[2] = biological target: T1, Alkaline phosphatase, tissue-nonspecific isozyme (Homo sapiens, UniProt P05186)
T1 sequence (P05186 whole entry): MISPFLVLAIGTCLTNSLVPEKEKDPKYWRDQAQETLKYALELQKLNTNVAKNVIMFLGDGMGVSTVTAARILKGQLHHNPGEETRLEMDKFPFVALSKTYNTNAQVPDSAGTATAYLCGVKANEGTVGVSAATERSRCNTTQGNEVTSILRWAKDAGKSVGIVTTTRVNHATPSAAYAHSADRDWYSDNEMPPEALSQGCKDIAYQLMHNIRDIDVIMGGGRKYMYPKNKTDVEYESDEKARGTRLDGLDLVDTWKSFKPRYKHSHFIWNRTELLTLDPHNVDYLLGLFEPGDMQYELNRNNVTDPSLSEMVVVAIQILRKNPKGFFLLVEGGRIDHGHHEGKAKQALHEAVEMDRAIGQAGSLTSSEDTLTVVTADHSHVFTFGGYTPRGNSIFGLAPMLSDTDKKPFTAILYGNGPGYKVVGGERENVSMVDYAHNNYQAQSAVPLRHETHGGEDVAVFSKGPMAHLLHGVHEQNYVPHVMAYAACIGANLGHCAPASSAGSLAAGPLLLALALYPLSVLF

[3] = biological target: Cyclin-dependent kinase 5/CDK5 activator 1 (Homo sapiens, UniProt Q00535); assay: CDK5/p35 kinase inhibitors, dose response, biochemical, cherry-picked samples, set 2 (AID 504545)
Cyclin-dependent kinase 5/CDK5 activator 1, sequence (Q00535 whole entry): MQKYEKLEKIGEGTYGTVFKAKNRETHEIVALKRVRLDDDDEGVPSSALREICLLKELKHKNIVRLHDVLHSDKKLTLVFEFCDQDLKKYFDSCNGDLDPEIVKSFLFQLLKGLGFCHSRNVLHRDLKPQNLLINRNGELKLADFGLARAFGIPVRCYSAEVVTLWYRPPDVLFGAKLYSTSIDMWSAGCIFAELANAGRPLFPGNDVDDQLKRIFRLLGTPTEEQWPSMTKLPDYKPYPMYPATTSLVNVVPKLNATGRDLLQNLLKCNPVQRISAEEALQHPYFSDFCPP
Cyclin-dependent kinase 5/CDK5 activator 1, sequence (Q15078 whole entry, further chain): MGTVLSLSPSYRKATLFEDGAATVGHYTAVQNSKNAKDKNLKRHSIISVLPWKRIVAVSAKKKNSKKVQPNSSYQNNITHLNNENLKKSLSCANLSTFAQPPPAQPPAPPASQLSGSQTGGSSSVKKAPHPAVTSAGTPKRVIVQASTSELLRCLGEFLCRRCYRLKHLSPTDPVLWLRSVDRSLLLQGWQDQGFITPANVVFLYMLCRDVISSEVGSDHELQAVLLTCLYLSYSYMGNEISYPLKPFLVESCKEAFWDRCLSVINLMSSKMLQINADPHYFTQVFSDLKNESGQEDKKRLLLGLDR

[4] = test system: Vero; assay: cells; format: functional; conditions: Chlorocebus sabaeus
[5] = biological target: Beta-galactosidase (Escherichia coli, UniProt Q8VNN2); assay: beta-galactosidase enzyme inhibitors and activators, dose response, artefact control for CCR6 antagonist project, biochemical, E. coli enzyme, set 3 (AID 504712); format: functional
Beta-galactosidase, sequence (Q8VNN2 whole entry): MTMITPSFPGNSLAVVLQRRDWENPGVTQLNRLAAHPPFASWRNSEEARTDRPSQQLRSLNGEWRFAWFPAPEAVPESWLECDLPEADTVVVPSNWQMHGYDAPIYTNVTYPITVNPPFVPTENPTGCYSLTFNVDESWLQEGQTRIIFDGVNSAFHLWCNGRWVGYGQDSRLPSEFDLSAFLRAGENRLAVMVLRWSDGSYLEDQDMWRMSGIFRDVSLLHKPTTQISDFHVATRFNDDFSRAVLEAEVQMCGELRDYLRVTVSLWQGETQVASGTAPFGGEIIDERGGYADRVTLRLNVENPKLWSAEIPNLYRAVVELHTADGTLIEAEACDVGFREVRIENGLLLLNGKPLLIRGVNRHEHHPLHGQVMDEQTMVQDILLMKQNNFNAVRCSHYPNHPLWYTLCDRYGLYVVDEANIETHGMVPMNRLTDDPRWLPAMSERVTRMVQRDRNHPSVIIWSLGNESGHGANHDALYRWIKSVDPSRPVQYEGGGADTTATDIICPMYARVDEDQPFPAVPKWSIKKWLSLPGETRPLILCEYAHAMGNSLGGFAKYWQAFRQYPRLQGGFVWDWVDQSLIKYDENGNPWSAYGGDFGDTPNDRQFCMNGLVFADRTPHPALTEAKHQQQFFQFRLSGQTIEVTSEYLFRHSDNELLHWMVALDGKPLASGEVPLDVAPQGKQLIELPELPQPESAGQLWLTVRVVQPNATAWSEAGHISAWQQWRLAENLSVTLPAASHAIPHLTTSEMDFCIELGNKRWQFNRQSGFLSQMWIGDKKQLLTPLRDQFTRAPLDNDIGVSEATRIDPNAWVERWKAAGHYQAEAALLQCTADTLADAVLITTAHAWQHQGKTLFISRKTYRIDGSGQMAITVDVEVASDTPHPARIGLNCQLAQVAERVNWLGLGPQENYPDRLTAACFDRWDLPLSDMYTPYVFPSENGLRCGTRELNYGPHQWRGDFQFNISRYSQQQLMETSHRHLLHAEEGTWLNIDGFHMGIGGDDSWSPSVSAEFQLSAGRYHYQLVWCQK

[6] = test system: P388/ADR; assay: cells; format: functional; conditions: Mus musculus
[7] = test system: SN12K1; assay: cells; format: functional; conditions: Homo sapiens
[8] = test system: P388; assay: cells; format: functional; conditions: Mus musculus
[9] = test system: Vero; assay: cells; format: functional, cell-based; conditions: Chlorocebus sabaeus
[10] = biological target: C-C chemokine receptor type 6 (Homo sapiens, UniProt P51684); assay: CCR6 receptor antagonists, dose response, cell-based, luminescent beta-arrestin readout (AID 504728); format: functional
C-C chemokine receptor type 6, sequence (P51684 whole entry): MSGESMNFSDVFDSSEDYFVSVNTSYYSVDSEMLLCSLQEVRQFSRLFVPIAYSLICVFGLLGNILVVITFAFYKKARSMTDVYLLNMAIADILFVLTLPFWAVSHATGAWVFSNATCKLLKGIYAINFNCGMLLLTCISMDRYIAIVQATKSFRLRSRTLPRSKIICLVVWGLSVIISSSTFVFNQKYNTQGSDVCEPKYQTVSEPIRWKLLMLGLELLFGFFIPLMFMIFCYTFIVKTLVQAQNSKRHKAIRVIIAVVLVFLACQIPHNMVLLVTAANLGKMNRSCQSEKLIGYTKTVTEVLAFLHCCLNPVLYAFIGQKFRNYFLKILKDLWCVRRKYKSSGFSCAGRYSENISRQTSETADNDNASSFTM

[11] = biological target: Kappa-type opioid receptor (Homo sapiens, UniProt P41145); assay: SAR analysis of small molecule agonists of the kappa opioid receptor via a luminescent beta-arrestin assay - Set 2. [Related pubchem assays (depositor defined):AID1777, AID1785, AID1786, AID1966, AID2133, AID2136, AID2284, AID449737]; format: functional
Kappa-type opioid receptor, sequence (P41145 whole entry): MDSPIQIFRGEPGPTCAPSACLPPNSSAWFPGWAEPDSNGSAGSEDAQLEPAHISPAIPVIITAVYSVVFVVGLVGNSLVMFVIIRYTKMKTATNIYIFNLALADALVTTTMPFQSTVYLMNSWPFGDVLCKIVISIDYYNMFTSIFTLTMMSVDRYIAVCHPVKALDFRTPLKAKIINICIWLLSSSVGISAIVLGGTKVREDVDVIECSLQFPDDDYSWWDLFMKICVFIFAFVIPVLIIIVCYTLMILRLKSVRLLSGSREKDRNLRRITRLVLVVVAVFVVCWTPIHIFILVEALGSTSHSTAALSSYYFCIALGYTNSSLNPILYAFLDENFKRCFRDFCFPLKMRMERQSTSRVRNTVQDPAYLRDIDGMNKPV

[12] = inhibitors of firefly luciferase expression or activity, dose response, H4 neuroglioma cells, luminescence (AID 1990); format: functional, cell-based
[13] = Luminescence Cell-Based Dose Response HTS to Identify Inhibitors of 5'UTR Stem-Loop Driven Prion Protein mRNA Translation in H4 Neuroglioblastoma Cells. [Related pubchem assays: 1827 (Project Summary), 1813 (Primary HTS)]; format: functional
[14] = test system: Vero; assay: Vero E6 cell cytotoxicity, SAR follow-up, cytotoxicity control for West Nile virus antiviral project, synthesized analogs (AID 2244); format: functional; conditions: Chlorocebus sabaeus
[15] = Luminescence Cell-Based Dose Retest to Confirm Inhibitors of Cancer Stem Cells. [Related pubchem assays (depositor defined):AID2717, AID2721]; format: functional; conditions: Homo sapiens
[16] = inhibitors of SNCA 5'UTR-driven reporter translation, confirmation, H4 neuroglioma cells, luminescence (AID 1988); format: functional, cell-based
[17] = biological target: T2, Aminopeptidase N (Plasmodium falciparum FcB1/Columbia, UniProt O96935); assay: P. falciparum M1AAP inhibitors, biochemical, fluorogenic H-Leu-NHMec substrate, 1536-well (AID 1445); design: species or system Plasmodium falciparum 3D7, 3D7
T2 sequence (O96935 whole entry): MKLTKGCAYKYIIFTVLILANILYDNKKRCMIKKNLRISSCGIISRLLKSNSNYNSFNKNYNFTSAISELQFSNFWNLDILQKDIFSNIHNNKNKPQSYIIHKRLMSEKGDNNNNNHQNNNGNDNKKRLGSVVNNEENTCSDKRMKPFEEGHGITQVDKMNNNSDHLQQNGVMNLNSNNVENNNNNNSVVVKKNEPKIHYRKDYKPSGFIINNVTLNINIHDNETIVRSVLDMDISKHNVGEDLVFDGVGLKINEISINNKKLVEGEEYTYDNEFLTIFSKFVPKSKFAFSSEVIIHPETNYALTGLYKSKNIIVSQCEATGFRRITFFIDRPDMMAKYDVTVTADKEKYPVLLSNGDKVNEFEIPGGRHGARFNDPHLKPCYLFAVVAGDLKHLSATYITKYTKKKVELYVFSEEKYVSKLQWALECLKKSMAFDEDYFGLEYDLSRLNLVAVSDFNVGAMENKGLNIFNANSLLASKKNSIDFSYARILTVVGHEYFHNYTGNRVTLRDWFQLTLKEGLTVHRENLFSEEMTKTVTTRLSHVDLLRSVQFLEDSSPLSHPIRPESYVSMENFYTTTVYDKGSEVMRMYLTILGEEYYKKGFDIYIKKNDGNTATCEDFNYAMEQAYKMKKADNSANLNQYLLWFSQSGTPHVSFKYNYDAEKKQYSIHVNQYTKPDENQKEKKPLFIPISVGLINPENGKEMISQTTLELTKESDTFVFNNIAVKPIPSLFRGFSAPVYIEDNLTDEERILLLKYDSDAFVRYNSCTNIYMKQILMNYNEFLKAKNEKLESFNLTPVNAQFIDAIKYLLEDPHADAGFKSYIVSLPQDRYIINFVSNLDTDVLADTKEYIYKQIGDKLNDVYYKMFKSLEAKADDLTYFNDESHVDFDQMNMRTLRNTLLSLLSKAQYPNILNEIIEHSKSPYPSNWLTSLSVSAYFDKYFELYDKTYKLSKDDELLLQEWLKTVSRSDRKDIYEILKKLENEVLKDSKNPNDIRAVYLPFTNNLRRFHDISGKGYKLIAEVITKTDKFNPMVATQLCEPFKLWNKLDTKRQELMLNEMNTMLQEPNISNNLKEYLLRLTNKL

[18] = biological target: ORF 73 (Human herpesvirus 8, UniProt O40947); assay: inhibitors of C-LANA binding to LBS DNA, dose response, biochemical, fluorescence polarization, cherry-picked samples (AID 504725); design: species or system Human gammaherpesvirus 8;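 also: fluorescence polarization of a labeled DNA duplex reporting LANA DNA binding; potency is for inhibitors that block LANA binding to the DNA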
ORF 73, sequence (O40947 whole entry): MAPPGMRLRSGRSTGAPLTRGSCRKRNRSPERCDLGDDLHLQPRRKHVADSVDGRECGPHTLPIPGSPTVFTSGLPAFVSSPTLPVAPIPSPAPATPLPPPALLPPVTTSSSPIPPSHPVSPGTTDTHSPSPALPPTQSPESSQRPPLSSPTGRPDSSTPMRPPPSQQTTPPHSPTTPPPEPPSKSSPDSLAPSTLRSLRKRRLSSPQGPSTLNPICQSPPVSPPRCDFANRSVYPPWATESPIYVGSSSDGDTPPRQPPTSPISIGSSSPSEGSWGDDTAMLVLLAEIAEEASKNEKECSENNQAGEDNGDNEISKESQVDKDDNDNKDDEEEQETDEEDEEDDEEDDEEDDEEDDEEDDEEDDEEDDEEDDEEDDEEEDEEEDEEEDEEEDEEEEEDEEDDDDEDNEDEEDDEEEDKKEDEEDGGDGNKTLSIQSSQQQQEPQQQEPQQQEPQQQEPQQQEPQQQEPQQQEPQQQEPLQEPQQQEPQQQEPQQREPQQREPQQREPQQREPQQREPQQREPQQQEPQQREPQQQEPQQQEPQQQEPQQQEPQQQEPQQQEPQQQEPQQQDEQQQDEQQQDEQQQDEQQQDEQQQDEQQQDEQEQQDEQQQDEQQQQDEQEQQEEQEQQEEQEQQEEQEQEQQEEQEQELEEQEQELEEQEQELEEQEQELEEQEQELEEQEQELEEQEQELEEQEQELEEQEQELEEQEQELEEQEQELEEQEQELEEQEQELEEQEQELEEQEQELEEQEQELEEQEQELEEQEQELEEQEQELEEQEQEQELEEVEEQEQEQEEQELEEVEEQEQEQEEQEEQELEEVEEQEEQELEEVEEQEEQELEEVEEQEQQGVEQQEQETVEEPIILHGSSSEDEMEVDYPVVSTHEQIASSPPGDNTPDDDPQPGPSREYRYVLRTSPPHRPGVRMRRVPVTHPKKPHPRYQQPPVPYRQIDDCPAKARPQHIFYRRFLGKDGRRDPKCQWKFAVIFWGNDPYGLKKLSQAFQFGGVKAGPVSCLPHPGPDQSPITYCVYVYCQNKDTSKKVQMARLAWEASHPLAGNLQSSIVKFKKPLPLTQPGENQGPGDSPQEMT

[19] = biological target: T3, Zinc finger protein mex-5 (Caenorhabditis elegans, UniProt Q9XUB2); assay: MEX-5/TCR-2 RNA interaction inhibitors, dose response, biochemical, C. elegans, fluorescence polarization (AID 1960)
T3 sequence (Q9XUB2 whole entry): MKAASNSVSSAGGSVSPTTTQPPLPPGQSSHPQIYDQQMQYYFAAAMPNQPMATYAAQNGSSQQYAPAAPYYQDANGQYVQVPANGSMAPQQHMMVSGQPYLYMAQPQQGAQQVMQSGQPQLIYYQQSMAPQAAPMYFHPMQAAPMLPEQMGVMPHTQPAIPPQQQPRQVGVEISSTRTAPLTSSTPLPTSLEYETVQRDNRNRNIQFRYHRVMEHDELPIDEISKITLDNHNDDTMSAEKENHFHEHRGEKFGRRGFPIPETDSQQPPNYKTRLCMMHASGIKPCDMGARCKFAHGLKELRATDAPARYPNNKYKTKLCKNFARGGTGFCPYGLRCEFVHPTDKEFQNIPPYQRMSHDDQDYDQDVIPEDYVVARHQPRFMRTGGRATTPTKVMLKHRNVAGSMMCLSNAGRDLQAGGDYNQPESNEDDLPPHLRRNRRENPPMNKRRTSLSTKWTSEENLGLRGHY

[20] = biological target: T4, RNA-binding protein pos-1 (Caenorhabditis elegans, UniProt G5EF15); assay: inhibitors of POS-1/mex-3 RNA binding, dose response, biochemical, fluorescence polarization (AID 1964);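 also: purified POS-1 fused to maltose binding protein made in E. coli; potency of compounds blocking POS-1 binding to fluorescent RNA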
T4 sequence (G5EF15 whole entry): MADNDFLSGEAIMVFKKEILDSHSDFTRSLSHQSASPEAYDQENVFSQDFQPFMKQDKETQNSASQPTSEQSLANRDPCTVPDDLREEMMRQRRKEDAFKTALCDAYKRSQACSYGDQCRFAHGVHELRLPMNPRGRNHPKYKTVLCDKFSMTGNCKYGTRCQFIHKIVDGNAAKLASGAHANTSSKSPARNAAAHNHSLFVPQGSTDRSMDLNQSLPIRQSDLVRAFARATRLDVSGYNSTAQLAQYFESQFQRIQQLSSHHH

[21] = biological target: Cytochrome P450 2C9 (Homo sapiens, UniProt P11712); conditions: Potency
Cytochrome P450 2C9, sequence (P11712 whole entry): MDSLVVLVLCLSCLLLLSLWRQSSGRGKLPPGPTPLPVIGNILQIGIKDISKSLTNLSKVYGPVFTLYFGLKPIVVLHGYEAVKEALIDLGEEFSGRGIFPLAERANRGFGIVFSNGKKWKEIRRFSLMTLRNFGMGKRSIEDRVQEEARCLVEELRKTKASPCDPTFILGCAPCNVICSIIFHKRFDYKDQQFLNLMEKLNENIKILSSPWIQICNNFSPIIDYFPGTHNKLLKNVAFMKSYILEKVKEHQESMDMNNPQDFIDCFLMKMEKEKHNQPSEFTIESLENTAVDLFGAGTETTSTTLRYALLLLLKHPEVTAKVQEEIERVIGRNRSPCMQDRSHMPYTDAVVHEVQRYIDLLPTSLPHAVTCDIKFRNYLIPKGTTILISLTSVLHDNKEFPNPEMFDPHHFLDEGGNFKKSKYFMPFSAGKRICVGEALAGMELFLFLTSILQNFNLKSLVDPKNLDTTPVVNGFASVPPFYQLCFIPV

In the case of `Cn1c(N)c(C(=O)COC(=O)c2ccc(Cl)c(S(=O)(=O)N3CCCC3)c2)c(=O)n(C)c1=O`, the AC50 [1] was 68.1 µM (active).
In the case of `CCN(CC)c1ccc(NC(=O)Cn2c(C(C)NC(=O)c3ccc(C)cc3)nc3ccccc32)cc1` (stereo unspecified), the EC50 [2] was > 100 µM (not active).
With `Fc1ccccc1/C=N/Nc1[nH]cnc2ncnc1-2` the AC50 [3] was 17.4 µM (active).
For `CCCC/C=C1/CCC(CN(C)C)C1=O` (stereo unspecified), the CC50 [4] was > 25 µM (active), the IC50 [5] was > 66.6 µM (inactive) and the GI50 [6] was 0.155 µM (active). For the same molecule, the GI50 [7] was 0.776 µM (active), the GI50 [8] was 0.164 µM (active) and the IC50 [9] was 21.8 µM (active). For the same molecule, the IC50 [10] was 27.1 µM (inactive).
For `O=C(CN(Cc1cccs1)C(=O)c1ccccn1)NC1CCCCC1`, the EC50 [11] was > 20 µM (inactive).
For `CCN(CC)CCCN=C(S)N1CCN(c2nc(-c3ccc(F)cc3)cs2)CC1`, the EC50 [12] was > 120 µM (not active), the EC50 [13] was > 120 µM (not active) and the CC50 [14] was 13.3 µM (active). The AC50 [15] was 1 µM (active) and the EC50 [16] was > 120 µM (not active).
For `CS(=O)(=O)Nc1nc2n(n1)C(c1ccccc1)C=C(c1ccc(Br)cc1)N2` (stereo unspecified), the IC50 [17] was 45.3 µM (active), the AC50 [18] was 8.07 µM (active) and the EC50 [19] was 6.39 µM (active). The EC50 [20] was > 300 µM (not active).
In the case of `COCC#Cc1ccc(C2C(C)CCC3C(=O)N4C(CCC(C)C4c4ccc(C#CCOC)cc4)C(=O)N32)cc1` (stereo unspecified), the AC50 [21] was 7.94 µM (inconclusive).
